# From ChEMBL document CHEMBL3994622, “Design and synthesis of new RAF kinase-inhibiting antiproliferative quinoline derivatives. Part 2: Diarylurea derivatives” (Eur J Med Chem, 2017)
# Columns and labels:
# MOLT-4 = assay: Growth inhibition of human MOLT4 cells assessed as cell growth at 50 uM incubated for 48 hrs by sulforhodamine B assay relative to control; format: functional; details: MOLT-4, 48 h, read-out: Activity
# MCF7 = assay: Growth inhibition of human MCF7 cells assessed as cell growth at 50 uM incubated for 48 hrs by sulforhodamine B assay relative to control; format: functional; details: MCF7, 48 h, read-out: Activity
# NCI-H226 = assay: Growth inhibition of human NCI-H226 cells assessed as cell growth at 0.5 uM incubated for 48 hrs by sulforhodamine B assay relative to control; format: functional; details: NCI-H226, 48 h, read-out: Activity
# NCI/ADR-RES = assay: Growth inhibition of human NCI/ADR-RES cells assessed as cell growth at 0.05 uM incubated for 48 hrs by sulforhodamine B assay relative to control; format: functional; details: read-out: Activity
# CAKI-1 [1] = assay: Growth inhibition of human Caki1 cells assessed as cell growth at 0.5 uM incubated for 48 hrs by sulforhodamine B assay relative to control; format: functional; details: CAKI-1, 48 h, read-out: Activity
# COLO 205 = assay: Growth inhibition of human COLO205 cells assessed as cell growth at 0.005 uM incubated for 48 hrs by sulforhodamine B assay relative to control; format: functional; details: COLO 205, 48 h, read-out: Activity
# SN12C = assay: Growth inhibition of human SN12C cells assessed as cell growth at 50 uM incubated for 48 hrs by sulforhodamine B assay relative to control; format: functional; details: read-out: Activity
# HCC 2998 [2] = assay: Growth inhibition of human HCC2998 cells assessed as cell growth at 50 uM incubated for 48 hrs by sulforhodamine B assay relative to control; format: functional; details: HCC 2998, 48 h, read-out: Activity
# ACHN = assay: Growth inhibition of human ACHN cells assessed as cell growth at 0.5 uM incubated for 48 hrs by sulforhodamine B assay relative to control; format: functional; details: read-out: Activity
# RXF 393 [3] = assay: Growth inhibition of human RXF393 cells assessed as cell growth at 0.005 uM incubated for 48 hrs by sulforhodamine B assay relative to control; format: functional; details: RXF 393, 48 h, read-out: Activity
# RXF 393 [4] = assay: Growth inhibition of human RXF393 cells assessed as cell growth at 0.05 uM incubated for 48 hrs by sulforhodamine B assay relative to control; format: functional; details: RXF 393, 48 h, read-out: Activity
# A498 = assay: Growth inhibition of human A498 cells assessed as cell growth at 0.5 uM incubated for 48 hrs by sulforhodamine B assay relative to control; format: functional; details: A498, 48 h, read-out: Activity
# UO-31 = assay: Growth inhibition of human UO31 cells assessed as cell growth at 0.05 uM incubated for 48 hrs by sulforhodamine B assay relative to control; format: functional; details: UO-31, 48 h, read-out: Activity
# SK-OV-3 = assay: Growth inhibition of human SKOV3 cells assessed as cell growth at 0.05 uM incubated for 48 hrs by sulforhodamine B assay relative to control; format: functional; details: SK-OV-3, 48 h, read-out: Activity
# RPMI-8226 [5] = assay: Growth inhibition of human RPMI8226 cells assessed as cell growth at 0.05 uM incubated for 48 hrs by sulforhodamine B assay relative to control; format: functional; details: RPMI-8226, 48 h, read-out: Activity
# HCT-15 [6] = assay: Growth inhibition of human HCT15 cells assessed as cell growth at 0.005 uM incubated for 48 hrs by sulforhodamine B assay relative to control; format: functional; details: HCT-15, 48 h, read-out: Activity
# NCI-H460 = assay: Growth inhibition of human NCI-H460 cells assessed as cell growth at 0.005 uM incubated for 48 hrs by sulforhodamine B assay relative to control; format: functional; details: NCI-H460, 48 h, read-out: Activity
# EKVX [7] = assay: Growth inhibition of human EKVX cells assessed as cell growth at 0.005 uM incubated for 48 hrs by sulforhodamine B assay relative to control; format: functional; details: read-out: Activity
# 786-0 = assay: Growth inhibition of human 786-0 cells assessed as cell growth at 0.5 uM incubated for 48 hrs by sulforhodamine B assay relative to control; format: functional; details: 786-0, 48 h, read-out: Activity
# DU-145 = assay: Growth inhibition of human DU145 cells assessed as cell growth at 5 uM incubated for 48 hrs by sulforhodamine B assay relative to control; format: functional; details: DU-145, 48 h, read-out: Activity
# SF-539 = assay: Growth inhibition of human SF539 cells assessed as cell growth at 0.5 uM incubated for 48 hrs by sulforhodamine B assay relative to control; format: functional; details: SF-539, 48 h, read-out: Activity
# CAKI-1 [8] = assay: Growth inhibition of human Caki1 cells assessed as cell growth at 0.05 uM incubated for 48 hrs by sulforhodamine B assay relative to control; format: functional; details: CAKI-1, 48 h, read-out: Activity
# HCC 2998 [9] = assay: Growth inhibition of human HCC2998 cells assessed as cell growth at 0.05 uM incubated for 48 hrs by sulforhodamine B assay relative to control; format: functional; details: HCC 2998, 48 h, read-out: Activity
# M14 = assay: Growth inhibition of human M14 cells assessed as cell growth at 0.05 uM incubated for 48 hrs by sulforhodamine B assay relative to control; format: functional; details: M14, 48 h, read-out: Activity
# TK-10 = assay: Growth inhibition of human TK10 cells assessed as cell growth at 0.5 uM incubated for 48 hrs by sulforhodamine B assay relative to control; format: functional; details: TK-10, 48 h, read-out: Activity
# OVCAR-8 = assay: Growth inhibition of human OVCAR8 cells assessed as cell growth at 0.005 uM incubated for 48 hrs by sulforhodamine B assay relative to control; format: functional; details: OVCAR-8, 48 h, read-out: Activity
# HCT-15 [10] = assay: Growth inhibition of human HCT15 cells assessed as cell growth at 5 uM incubated for 48 hrs by sulforhodamine B assay relative to control; format: functional; details: HCT-15, 48 h, read-out: Activity
# Malme-3M = assay: Growth inhibition of human MALME-3M cells assessed as cell growth at 50 uM incubated for 48 hrs by sulforhodamine B assay relative to control; format: functional; details: read-out: Activity
# SNB-75 = assay: Growth inhibition of human SNB75 cells assessed as cell growth at 0.5 uM incubated for 48 hrs by sulforhodamine B assay relative to control; format: functional; details: SNB-75, 48 h, read-out: Activity
# RPMI-8226 [11] = assay: Growth inhibition of human RPMI8226 cells assessed as cell growth at 5 uM incubated for 48 hrs by sulforhodamine B assay relative to control; format: functional; details: RPMI-8226, 48 h, read-out: Activity
# EKVX [12] = assay: Growth inhibition of human EKVX cells assessed as cell growth at 30 uM incubated for 48 hrs by sulforhodamine B assay relative to control; format: functional; details: read-out: Activity
# [13] = molecular target: Serine/threonine-protein kinase B-raf (Homo sapiens, UniProt P15056, V600E); assay: Inhibition of human BRAF V600E mutant using MEK1 as substrate in presence of [33P]ATP by Hotspot assay
# EKVX [14] = assay: Growth inhibition of human EKVX cells assessed as cell growth at 0.3 uM incubated for 48 hrs by sulforhodamine B assay relative to control; format: functional; details: read-out: Activity
# MDA-MB-468 = assay: Growth inhibition of human MDA-MB-468 cells assessed as cell growth at 30 uM incubated for 48 hrs by sulforhodamine B assay relative to control; format: functional; details: MDA-MB-468, 48 h, read-out: Activity
# Chain of Serine/threonine-protein kinase B-raf (P15056 2-766 V600E limits assumed): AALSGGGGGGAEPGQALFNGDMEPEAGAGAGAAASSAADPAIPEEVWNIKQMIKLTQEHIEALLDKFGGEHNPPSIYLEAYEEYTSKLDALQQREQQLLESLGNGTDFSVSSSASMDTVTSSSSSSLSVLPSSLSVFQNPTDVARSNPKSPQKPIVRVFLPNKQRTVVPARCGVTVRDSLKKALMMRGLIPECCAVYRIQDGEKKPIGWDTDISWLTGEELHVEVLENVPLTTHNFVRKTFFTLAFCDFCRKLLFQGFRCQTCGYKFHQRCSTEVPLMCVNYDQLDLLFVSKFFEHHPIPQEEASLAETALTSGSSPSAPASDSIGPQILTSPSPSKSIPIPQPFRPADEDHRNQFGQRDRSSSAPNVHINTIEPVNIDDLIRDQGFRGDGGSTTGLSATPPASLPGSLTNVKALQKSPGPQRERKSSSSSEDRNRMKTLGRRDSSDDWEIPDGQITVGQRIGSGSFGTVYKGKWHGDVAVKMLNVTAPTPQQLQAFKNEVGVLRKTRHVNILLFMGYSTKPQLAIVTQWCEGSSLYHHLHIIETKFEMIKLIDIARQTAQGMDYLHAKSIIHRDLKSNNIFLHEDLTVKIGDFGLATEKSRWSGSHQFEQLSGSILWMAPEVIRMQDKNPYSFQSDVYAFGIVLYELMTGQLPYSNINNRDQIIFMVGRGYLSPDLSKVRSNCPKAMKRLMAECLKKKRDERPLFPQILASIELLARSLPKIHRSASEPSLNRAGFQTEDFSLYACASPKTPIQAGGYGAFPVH
smiles,measurement,setting,value
COc1cc2cc(Oc3ccc(NC(=O)Nc4cccc(C(F)(F)F)c4)cc3)c(C)nc2cc1OC,growth at 50 µM,MOLT-4,-22%
same,growth at 50 µM,MCF7,-89%
same,growth at 0.5 µM,NCI-H226,108%
same,growth at 0.05 µM,NCI/ADR-RES,101%
same,growth at 0.5 µM,CAKI-1 [1],91%
same,growth at 0.005 µM,COLO 205,97%
same,growth at 50 µM,SN12C,-21%
same,growth at 50 µM,HCC 2998 [2],4%
same,growth at 0.5 µM,ACHN,95%
same,growth at 0.005 µM,RXF 393 [3],94%
same,growth at 0.05 µM,RXF 393 [4],105%
same,growth at 0.5 µM,A498,85%
same,growth at 0.05 µM,UO-31,91%
same,growth at 0.05 µM,SK-OV-3,95%
same,growth at 0.05 µM,RPMI-8226 [5],96%
same,growth at 0.005 µM,HCT-15 [6],96%
same,growth at 0.005 µM,NCI-H460,96%
same,growth at 0.005 µM,EKVX [7],105%
same,growth at 0.5 µM,786-0,95%
same,growth at 5 µM,DU-145,32%
same,growth at 0.5 µM,SF-539,104%
same,growth at 0.05 µM,CAKI-1 [8],93%
same,growth at 0.05 µM,HCC 2998 [9],105%
same,growth at 0.05 µM,M14,84%
same,growth at 0.5 µM,TK-10,108%
same,growth at 0.005 µM,OVCAR-8,101%
same,growth at 5 µM,HCT-15 [10],18%
same,growth at 50 µM,Malme-3M,-60%
same,growth at 0.5 µM,SNB-75,77%
same,growth at 5 µM,RPMI-8226 [11],-25%
COc1cc2cc(Oc3ccc(NC(=O)Nc4ccc(Cl)c(C(F)(F)F)c4)cc3)c(C)nc2cc1OC,growth at 30 µM,EKVX [12],-70%
same,IC50,[13],260 nM
same,growth at 0.3 µM,EKVX [14],94%
Cc1nc2cc(O)c(O)cc2cc1Oc1ccc(NC(=O)Nc2ccc(Cl)c(Cl)c2)cc1,growth at 30 µM,MDA-MB-468,-34%
